From patent EP0882029B1, “HETEROCYCLIC DERIVATIVES AS ANTIDIABETIC AND ANTIOBESITY AGENTS” (MERCK & CO., INC., priority 1996, dated 1997)

What was measured:
[1] = biological target: T1, Human PPARγ2 (Homo sapiens, UniProt P37231); experiment: [3H]AD-5075 displacement (receptor binding) assay; conditions: gst-fusion receptor, 10 nM [3H2]AD-5075, ~16 h at 4 °C
T1 construct: The full length human cDNA for PPARγ2 and PPARδ were subcloned into the PGEX-2T and PGEX-KT, respectively, expression vector; made in house; host or cells: E. coli (pGEX-2T vector, Pharmacia)
T1 sequence (P37231 1-505): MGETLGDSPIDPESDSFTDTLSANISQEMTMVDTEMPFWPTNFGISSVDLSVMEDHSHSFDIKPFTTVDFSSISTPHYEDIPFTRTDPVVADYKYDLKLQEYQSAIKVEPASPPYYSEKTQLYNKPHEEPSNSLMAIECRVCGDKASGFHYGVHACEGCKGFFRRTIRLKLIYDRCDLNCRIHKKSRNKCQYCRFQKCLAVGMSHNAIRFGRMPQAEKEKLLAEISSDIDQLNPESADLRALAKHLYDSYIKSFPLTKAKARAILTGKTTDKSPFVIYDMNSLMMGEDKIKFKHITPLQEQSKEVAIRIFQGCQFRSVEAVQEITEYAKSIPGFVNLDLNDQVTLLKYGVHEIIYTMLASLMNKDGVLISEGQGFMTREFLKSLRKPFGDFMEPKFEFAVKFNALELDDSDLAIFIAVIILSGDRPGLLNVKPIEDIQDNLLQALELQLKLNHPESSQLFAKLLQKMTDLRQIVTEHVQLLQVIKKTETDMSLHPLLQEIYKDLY
Method: Human PPARγ2 and PPARδ, independently, were prepared as gst-fusion proteins in E. coli. The full length human cDNA for PPARγ2 and PPARδ were subcloned into the PGEX-2T and PGEX-KT, respectively, expression vector (Pharmacia). E. coli containing the plasmid were grown, induced, and then harvested by centrifugation. The resuspended pellet was broken in a French press and debris was removed by centrifugation at 12,000Xg. Receptors were purified from the supernatant by affinity chromatography on glutathione sepharose. After application to the column, and 1 wash, receptor was eluted with glutathione. Glycerol was added to stabilize the receptor and aliquots were frozen at -80 °C for later use.
For each assay, an aliquot of receptor (1:1000-1:3000 dilution) was incubated in TEGM (10 mM Tris, pH 7.2, 1 mM EDTA, 10% glycerol, 7 µl/100 ml β-mercaptoethanol, 10 mM Na molybdate, 1 mM dithiothreitol, 5 µg/ml aprotinin, 2 µg/ml leupeptin, 2 µg/ml benzamide and 0.5 mM PMSF) containing 5-10% COS-1 cell cytoplasmic lysate and 10 nM labeled thiazolidinedione ([^3H2]AD-5075, 21 Ci/mmole), ± test compound compound, [^3H2]Example 11, 17 Ci/mmole), ± test compound, respectively. Assays were incubated for ∼16 h at 4 °C in a final volume of 300 µl. […] After centrifugation at 3000 rpm for 10 min at 4 °C, 200 µl of the supernatant fraction was counted in a liquid scintillation counter. […]

[2] = biological target: T2, Human PPARδ (Homo sapiens, UniProt Q03181); experiment: [3H2]Example 11 displacement (receptor binding) assay; conditions: gst-fusion receptor, [3H2]Example 11, ~16 h at 4 °C
T2 construct: The full length human cDNA for PPARγ2 and PPARδ were subcloned into the PGEX-2T and PGEX-KT, respectively, expression vector; made in house; host or cells: E. coli (pGEX-KT vector, Pharmacia)
T2 sequence (Q03181 1-441): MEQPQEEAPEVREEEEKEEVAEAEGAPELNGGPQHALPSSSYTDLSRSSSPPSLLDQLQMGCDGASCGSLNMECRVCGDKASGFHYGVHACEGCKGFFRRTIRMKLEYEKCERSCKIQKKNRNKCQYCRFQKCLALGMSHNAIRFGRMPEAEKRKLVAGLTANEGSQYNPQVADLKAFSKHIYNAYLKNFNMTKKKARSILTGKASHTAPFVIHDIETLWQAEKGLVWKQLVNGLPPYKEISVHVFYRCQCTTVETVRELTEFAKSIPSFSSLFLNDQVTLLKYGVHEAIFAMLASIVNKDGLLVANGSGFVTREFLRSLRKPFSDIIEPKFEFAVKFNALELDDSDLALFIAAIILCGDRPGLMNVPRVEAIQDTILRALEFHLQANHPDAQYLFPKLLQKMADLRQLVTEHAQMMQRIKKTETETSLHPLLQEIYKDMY
Method: The hPPARδ binding assay comprises the steps of: • (a) preparing multiple test samples by incubating separate aliquots of the receptor hPPARδ with a test compound in TEGM containing 5-10% COS-1 cell cytoplasmic lysate and 2.5 nM labeled ([^3H2]Compound D, 17 Ci/mmole) for a minimum of 12 hours, and preferably for about 16 hours, at 4 °C, wherein the concentration of the test compound in each test sample is different, and preparing a control sample by incubating a further separate aliquot of the receptor hPPARδ under the same conditions but without the test compound; then • (b) removing unbound ligand by adding dextran/gelatin-coated charcoal to each sample while maintaining the samples at 4 °C and allowing at least 10 minutes to pass, then • (c) subjecting each of the test samples and the control sample from step (b) to centrifugation at 4 °C until the charcoal is pelleted; then • (d) counting a portion of the supernatant fraction of each of the test samples and the control sample from step (c) in a liquid scintillation counter and analyzing the results to determine the IC50 of the test compound.
Human PPARγ2 and PPARδ, independently, were prepared as gst-fusion proteins in E. coli. The full length human cDNA for PPARγ2 and PPARδ were subcloned into the PGEX-2T and PGEX-KT, respectively, expression vector (Pharmacia). […]

| Kd [1] | SMILES | Kd [2] |
| --- | --- | --- |
| 1 nM | Cc1oc(-c2ccccc2)nc1C(O)COc1ccc(CC2SC(=O)NC2=O)cc1 (centres unmarked) [AD-5075] |  |
|  | CCCc1c(OCCC[S+]([O-])c2ccc(CC(=O)OC)cc2Cl)ccc2c(CC)noc12 (centres unmarked) [Example 11, Methyl 3-chloro-4-(3-(3-ethyl-7-propyl-6-benz-[4,5]-isoxazoloxy)-propylthio)phenylacetate S-oxide] | 1 nM |
